# Measurements reported in patent US8722910B2, “Diyne compositions” (Evolva AG, priority 2009, dated 2014).
# What was measured:
# [1] = Solubility in water (incremental addition, 50° C.); format: physicochemical; settings: 10 mg, water added up to 50 μl
# Procedure: Solubility in water was determined. This was carried out by transferring 10 mg of the material into 1.5 ml HPLC vials. Then 10 μl (1 vol) of water was added. The sample was then isothermally held at 50° C. with stirring for 30 mins. The process was continued up to 50 μl by 10 μl increments with heating to 50° C. in between.
# C. albicans spores = test: Effect on the germination of C. albicans (MTT); format: cell-based; settings: drug added after 3 hours
# [2] = tested on: Enterobacter faecalis 29212; test: In vitro Antibacterial Activity; format: cell-based
# C. lipolytica = test: In vitro antifungal activity vs. yeasts (MIC/MFC); format: cell-based; settings: Yarrowia lipolytica, C. lipolytica (n = 1)
# all dermatophyte strains = test: MIC and MFC range over all dermatophyte strains tested; format: cell-based, dermatophytes; settings: Table 14 strains
# M. gypseum = test: In vitro antifungal activity vs. dermatophytes (MIC/MFC); format: cell-based; settings: M. gypseum (n = 1)
# ergosterol biosynthesis = test: 13C-acetate incorporation into ergosterol; format: cell-based, Candida albicans; settings: drug at about its MIC, added after the first 15 minutes
# [3] = In vitro Mammalian Cell Cytotoxicity; format: cell-based; settings: human, HFF cells
# all Candida strains = test: MIC range over all Candida strains tested; format: cell-based; settings: Table 13 strains
# C. albicans [4] = test: Effect on the morphology of growing Candida albicans cultures; format: cell-based; settings: inhibiting concentrations
# M. vanbreuseghemii = test: In vitro antifungal activity vs. dermatophytes (MIC/MFC); format: cell-based; settings: M. vanbreuseghemii (n = 1)
# T. rubrum = test: as above; format: cell-based; settings: T. rubrum (n = 15)
# B. dermatitidis = test: Susceptibility of clinical dimorphic fungi (MIC); format: cell-based; settings: B. dermatitidis (n = 30)
# C. albicans [5] = test: Mice infected systemically with C. albicans, oral dosing, kidney burden; format: in vivo; settings: orally twice daily for 3 days, vs untreated
# Procedure: Mice were infected systemically with C. albicans. Compound IV″ was administered orally twice daily for 3 days at 5 mg/kg or 10 mg/kg per dose. Kidney fungal burden decreased by 88% and 94% respectively, compared to the untreated control (as shown in FIG. 12 showing kidney fungal burden as determined by colony forming units (CFU) per gram of homogenised tissue).
# H. capsulatum = test: microbe, parasite or virus in culture; format: cell-based
# [6] = Stability of diyne salts on storage (HPLC content); format: physicochemical; settings: crystalline solid
# Procedure: Potassium (Z)-14-(furan-2-yl)tetradeca-9-en-11,13-diynoate was kept as a crystalline solid for 6 month at 2-8° C. The content of potassium (Z)-14-(furan-2-yl)tetradeca-9-en-11,13-diynoate was determined by HPLC against a reference sample kept at −20° C. After 6 months of storage characteristics such as colour, water content, XRPD profile, of the solid had not changed and it was still a beige solid. […] Also no change in the impurity profile was observed after 6 months storage.
# Potassium (Z)-14-(furan-2-yl)tetradeca-9-en-11,13-diynoate was also kept as a crystalline solid for 6 month at 25° C., 60% RH. Analysis was performed as described above. After 6 months of storage characteristics of the solid has not changed and it was still a beige solid. […] Also no change in the impurity profile was observed after 6 months storage.
# Potassium (Z)-14-(furan-2-yl)tetradeca-9-en-11,13-diynoate was also kept as a crystalline solid for 6 month at 40° C., 75% RH. Analysis was performed as described above. After 6 months of storage the appearance of the solid had changed to a brown solid. Furthermore, a decrease in the content of potassium (Z)-14-(furan-2-yl)tetradeca-9-en-11,13-diynoate to 96% was observed as analysed by HPLC.
# Sodium (Z)-14-(furan-2-yl)tetradeca-9-en-11,13-diynoate was kept as an amorphous solid at room temperature. […] Furthermore the salt was dissolved in an aqueous solution and already after few days the content of sodium (Z)-14-(furan-2-yl)tetradeca-9-en-11,13-diynoate was reduced by 35%, thus proving strong instability of the amorphous salt form.
# OLE1 = OLE1 expression by real time PCR; format: cell-based, C. albicans; settings: 250 ng/ml; 120 min; vs drug free control
# Procedure: Numbers indicate time intervals in minutes. Expression values are normalized to TUB1 and given as multiples of OLE1 expression at 10 minutes in ethanol.
# Similarly, the expression of OLE1 in C. albicans was investigated in response to compound IV″. In the presence of 250 ng/ml Compound IV, OLE1 transcript levels were increased 4-fold after 120 min incubation time compared to the drug free control. […] Expression values are normalised to TUB1 and given as multiples of OLE1 expression at 10 minutes in ethanol.
# Zygomycetes = test: Susceptibility of clinical isolates (MIC, broth dilution); format: cell-based; settings: Zygomycetes (n = 20)
# Procedure: (§1) The efficacy of compound IV″ was investigated on 563 clinical isolates of 33 human fungal pathogens. […] For species with n≧10, the MIC90 (MIC, minimal inhibitory concentration) is given as ng/ml. For species with n≦10, the MIC range is given as ng/ml. 24 h and 48 h reads are indicated (Table 1).
# C. neoformans = test: as above; format: cell-based; settings: C. neoformans (n = 18)
# Procedure: as §1
# Phialophora verrucosa = test: as above; format: cell-based; settings: Phialophora verrucosa (n = 4)
# Procedure: as §1
# Sporothrix schenckii = test: as above; format: cell-based; settings: Sporothrix schenckii (n = 10)
# Procedure: as §1
# Fonsecaea pedrosi = test: as above; format: cell-based; settings: Fonsecaea pedrosi (n = 4)
# Procedure: as §1
# Fusarium solani = test: as above; format: cell-based; settings: Fusarium solani (n = 10)
# Procedure: as §1
structure (smiles),measurement,setting,value
O=C(O)CCCCCCC/C=C\C#CC#Cc1ccco1 [Compound III″],solubility in water,[1],still did not dissolve
same,growth of spores germinated in the absence of drug,C. albicans spores,effectively inhibited the subsequent growth of spores
same,MIC90,[2],12500 ng/mL
same,MFC,C. lipolytica,< 0.06 ng/mL
same,MIC,"C. lipolytica; 90% inhibition endpoint, read-out: MIC",< 0.06 ng/mL
same,MFC range against dermatophytes,all dermatophyte strains,<0.06 to 16000 ng/mL
same,MIC range against all dermatophyte strains,all dermatophyte strains,<0.06 to 1000 ng/mL
same,MIC90/MIC range 48 h,M. gypseum; 48 h,<0.06 ng/mL
same,MIC,"M. gypseum; Nannizzia gypsea, 96 h, 35° C., 4 days",< 0.06 ng/mL
same,MFC,M. gypseum; Nannizzia gypsea,16000 ng/mL
same,net biosynthesis of ergosterol (13C-acetate incorporation),ergosterol biosynthesis,did not significantly inhibit the net biosynthesis of ergosterol
same,CC50,[3],75000 ng/mL
same,MIC range for all Candida strains,all Candida strains,<0.06 to 4000 ng/mL
same,effect on hyphal tube formation,C. albicans [4]; microscopy,prevented hyphal tube formation
same,effect on cell growth,C. albicans [4]; microscopy and MTT,"fungicidal, totally preventing cell growth"
same,MIC,"M. vanbreuseghemii; 96 h, 35° C., 4 days",30 ng/mL
same,MFC,M. vanbreuseghemii,16000 ng/mL
same,MIC90/MIC range 48 h,M. vanbreuseghemii; 48 h,30 ng/mL
same,MIC90/MIC range 48 h,"T. rubrum; MIC90, 48 h",<0.06 ng/mL
same,MIC,"T. rubrum; Trichophyton rubrum, 96 h, 35° C., 4 days",< 0.06 ng/mL
same,MFC,T. rubrum; Trichophyton rubrum,< 0.06 ng/mL
"O=C([O-])CCCCCCC/C=C\C#CC#Cc1ccco1.[K+] [Compound IV″, potassium (Z)-14-(furan-2-yl)tetradeca-9-en-11,13-diynoate]",MIC90/MIC range 48 h,"B. dermatitidis; MIC90, 48 h",30 ng/mL
same,MIC90,"B. dermatitidis; Blastomyces dermatitidis, CLSI M38-A2, 50% growth reduction, MIC read at 96 h",30 ng/mL
same,decrease of kidney fungal burden,C. albicans [5]; 5 mg/kg per dose,88%
same,decrease of kidney fungal burden,C. albicans [5]; 10 mg/kg per dose,94%
same,MIC90/MIC range 48 h,"H. capsulatum; H. capsulatum (n = 20), MIC90, 48 h",30 ng/mL
same,MIC90,"H. capsulatum; Histoplasma capsulatum, 120 h",30 ng/mL
same,content after storage (HPLC),[6]; 6 month at 2-8° C.,had not significantly changed
same,content after storage (HPLC),"[6]; 6 month at 25° C., 60% RH",had not changed significantly
same,"content after storage (HPLC), decrease to","[6]; 6 month at 40° C., 75% RH",96%
same,increase of OLE1 transcript levels,OLE1,4 fold
same,MIC90/MIC range 48 h,Zygomycetes,16000 ng/mL
same,MIC90/MIC range 48 h,C. neoformans,2000 ng/mL
same,MIC90/MIC range 48 h,Phialophora verrucosa,40 to 640 ng/mL
same,MIC90/MIC range 48 h,Sporothrix schenckii,32 to 5120 ng/mL
same,MIC90/MIC range 48 h,Fonsecaea pedrosi,80 to 2560 ng/mL
same,MIC90/MIC range 48 h,Fusarium solani,>64000 ng/mL
